Results published in patent publication US4808607A, “Imidazole analogs of mevalonolactone and derivatives thereof for use in inhibiting cholesterol biosynthesis and lowering blood cholesterol level” (Sandoz Pharm. Corp., priority 1987, dated 1989).
Where two headings read alike, the source gives them in different places.

Legend:
[1] = molecular target: T1, HMG-CoA reductase (Rattus norvegicus, UniProt P51639); experiment: Test A. In Vitro Microsomal Assay of HMG-CoA Reductase Inhibition; type: biochemical, rat (male Sprague-Dawley)
T1 construct: In the assay the microsomes are the source of the HMG-CoA reductase enzyme; from tissue; host or cells: liver microsomes of male Sprague-Dawley rats
T1 sequence (P51639 1-887): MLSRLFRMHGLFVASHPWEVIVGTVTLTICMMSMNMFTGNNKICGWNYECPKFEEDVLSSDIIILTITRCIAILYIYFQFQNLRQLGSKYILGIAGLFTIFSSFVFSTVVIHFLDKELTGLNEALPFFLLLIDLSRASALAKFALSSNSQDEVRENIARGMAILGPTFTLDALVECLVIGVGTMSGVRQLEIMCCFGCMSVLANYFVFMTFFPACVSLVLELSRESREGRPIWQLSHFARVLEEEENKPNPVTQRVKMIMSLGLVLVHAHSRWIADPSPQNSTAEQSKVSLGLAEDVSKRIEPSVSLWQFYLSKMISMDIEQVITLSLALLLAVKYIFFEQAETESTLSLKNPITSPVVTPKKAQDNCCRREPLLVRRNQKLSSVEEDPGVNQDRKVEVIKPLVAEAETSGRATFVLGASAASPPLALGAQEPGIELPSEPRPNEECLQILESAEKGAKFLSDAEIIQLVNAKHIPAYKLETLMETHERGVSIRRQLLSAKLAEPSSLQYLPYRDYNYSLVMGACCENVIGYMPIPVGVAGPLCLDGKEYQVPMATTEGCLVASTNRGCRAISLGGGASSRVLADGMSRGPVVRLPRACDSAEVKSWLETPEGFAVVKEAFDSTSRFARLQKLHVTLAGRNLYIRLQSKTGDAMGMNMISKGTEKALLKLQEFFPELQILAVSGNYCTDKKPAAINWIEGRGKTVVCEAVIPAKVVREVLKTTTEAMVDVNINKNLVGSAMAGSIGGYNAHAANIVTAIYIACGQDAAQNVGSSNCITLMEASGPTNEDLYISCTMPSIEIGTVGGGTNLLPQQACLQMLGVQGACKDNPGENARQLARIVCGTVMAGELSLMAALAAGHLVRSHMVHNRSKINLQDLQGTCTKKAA
Procedure: The compounds of Formula I and the pharmaceutically acceptable acid addition salts thereof are competitive inhibitors of 3-hydroxy-3-methylglutaryl coenzyme A (HMG-CoA) reductase, the rate limiting enzyme in cholesterol biosynthesis, and, therefore, they are inhibitors of cholesterol biosynthesis.
Test A. In Vitro Microsomal Assay of HMG--CoA Reductase Inhibition:
200 μl. aliquots (1.08-1.50 mg./ml.) of rat liver microsomal suspensions, freshly prepared from male SpragueDawley rats (150-225 g. body weight), in Buffer A with 10 mmol. dithiothreitol are incubated with 10 μl. of a solution of the test substance in dimethylacetamide and assayed for HMG--CoA reductase activity as described in Ackerman et al., J. Lipid Res. 18, 408-413 (1977), the concentration of the test substance in the assay system being 0.0001-2,000 μmolar. In the assay the microsomes are the source of the HMG-CoA reductase enzyme which catalyzes the reduction of HMG-CoA to mevalonate. The assay employs a chloroform extraction to separate the product, [^14 C]mevalonolactone, formed by the HMG-CoA reductase reduction of the substrate, [^14 C]HMG-CoA. [^3 H]mevalonolactone is added as an internal reference. Inhibition of HMG-CoA reductase is calculated from the decrease in specific activity ([^14 C/^3 H]mevalonate) of test groups compared to controls.
The IC50 is the concentration of the test substance in the assay system calculated or observed to produce a 50% inhibition of HMG-CoA reductase activity.

[2] = test system: 3β-hydroxysterol synthesis (cholesterol biosynthesis); experiment: Test B. In Vivo Cholesterol Biosynthesis Inhibition Test; parameters: species or system rat (male Wistar Royal Hart); conditions: Rattus norvegicus, read-out: ED50 in Test B (dose producing 50% inhibition of 3β-hydroxysterol synthesis)
Procedure: Test B. In Vivo Cholesterol Biosynthesis Inhibition Test: In vivo studies utilize male Wistar Royal Hart rats weighing 150±20 g. which have been kept for 7-10 days on an altered light cycle (6:30 A.M. - 6:30 P.M. dark) housed two per cage and fed powdered Purina Rat Chow and water ad libitum. Three hours before the diurnal maximum of cholesterol synthesis at mid-dark, the rats are administered orally the test substance (e.g., 0.001-200 mg./kg. body weight) dissolved or as a suspension in 0.5% carboxymethylcellulose in a volume of 1 ml./100 g. body weight. Controls receive vehicle alone. One hour after receiving the test substance (or the vehicle alone), the rats are injected intraperitoneally with about 25 μCi/100 g. body weight of sodium [1-^14 C]acetate 1-3 mCi/mmol. Two hours after mid-dark, blood samples are obtained under sodium hexobarbitol anesthesia, and the serum is separated by centrifugation. […] The [^14 C]digitonides are then counted by liquid scintillation spectrometry. After correcting for efficiencies, the results are calculated in nCi (nanocuries) of 3β-hydroxysterol formed per 100 ml. of serum.

[3] = rat liver microsomes, [14C]HMG-CoA substrate, test substance in dimethylacetamide, read-out: IC50 in Test A (50% inhibition of HMG-CoA reductase activity)
[4] = oral, single dose, male rats, [1-14C]acetate i.p. 1 h after dose, serum 3β-hydroxysterols

Row | Structure (SMILES) | IC50 [1, 3] [nM] | ED50 [2, 4] [mg/kg] | IC50 [1] [nM] | ED50 ([2]; po, 1 h) [mg/kg]
1 | CC[C@H](C)C(=O)O[C@H]1CCC=C2C=C[C@H](C)[C@H](CC[C@@H]3C[C@@H](O)CC(=O)O3)[C@H]21 [Compactin, reference compound] | 1010 | 3.5 |  | 
2 | CC(C)c1nc(-c2ccccc2)n(-c2ccc(F)cc2)c1/C=C/[C@@H](O)C[C@@H](O)CC(=O)O [Example 2A, Sodium (3R,5S)-(E)-3,5-dihydroxy-7-[1'-(4"-fluorophenyl)-4'-(1"-methylethyl)-2'-phenyl-1H-imidazol-5'-yl]hept-6-enoate] | 2 | 0.02 |  | 
3 | CCC(C)C(=O)OC1CC(C)C=C2C=CC(C)C(CCC3CC(O)CC(=O)O3)C21 (stereo not shown) [Mevinolin, reference compound] |  |  | 140 | 0.38
4 | CC(C)c1nc(-c2ccccc2)n(-c2ccc(F)cc2)c1/C=C/[C@@H](O)C[C@@H](O)CC(=O)O (relative stereo) [Example 2, Sodium (±)-erythro-(E)-3,5-dihydroxy-7-[1'-(4"-fluorophenyl)-4'-(1"-methylethyl)-2'-phenyl-1H-imidazol-5'-yl]hept-6-enoate] | 2.6 | 0.025 |  | 
5 | CC(C)c1nc(-c2ccccc2)n(-c2ccccc2)c1/C=C/[C@@H](O)C[C@@H](O)CC(=O)O (relative stereo) [Example 10] | 36 | 0.028 |  | 
